Molecules are shown by their SMILES. Where a name gives a salt, the structure may show the parent alone.

Here are results for 32 molecules from US20140005177A1, “PYRIDINYL- AND PYRAZINYL-METHYLOXY-ARYL DERIVATIVES USEFUL AS INHIBITORS OF SPLEEN TYROSINE KINASE (SYK)” (GLAXO GROUP LIMITED, priority 2011, published 2014).

For the first experiment, the system named is Ramos B cells. Description: Ramos pErk assay (anti-IgM stimulated B cells, pErk MSD). Format: cell-based. To be noted: Homo sapiens, Ramos, anti-IgM 5 μg/ml, pErk readout, read-out: average pIC50 (converted). As for the experimental part: Ramos B cells (human B cells of Burkitt's Lymphoma) are stimulated using anti-IgM. […] The subsequent autophosphorylation of Syk leads to initiation of a signalling cascade resulting in B cell activation via the Erk MAP Kinase pathway. As a result Erk is phosphorylated and following cell lysis is detected by an immune capture assay.
Cells were plated at a density of 2.5×10^5/well in a volume of 25 μl assay medium (RPMI containing 10% heat inactivated foetal calf serum, 1% L-glutamine) in 96 v-well polypropylene plates. 25 μl appropriately diluted compound solution was added and the plate incubated for 30 min at 37° C. with 5% CO2. Cells were stimulated with 5 μl Fab′2 fragments of goat anti-human IgM (5 μg/ml final) for 7 min at 37° C. Cells are lysed by the addition of 55 μL 2×RIPA lysis buffer for 2 h at 4° C. Lysate may be frozen at this point at −80° C.
50 μl cell lysate was transferred to a 96 well MSD plate coated with anti-pErk1/2 (Thr/Tyr: 202/204; 185/187) capture antibody and incubated for 16 hours at 4° C. or 3 hours at room temperature. The plate was washed and an anti-pErk detection antibody added (25 μl/well) for 1 hour at room temperature. This was removed, 150 μL MSD read buffer added and the resultant electrochemiluminescence signal measured.
Compound was prepared as a 10 mM stock in DMSO and a dilution series prepared in DMSO using 9 successive 5-fold dilutions. This dilution series was diluted a further 1:100 with assay medium to give the final concentration range to be tested of 5×10^−5 to 2.56×10^−11M. Compound dilutions were prepared using the Biomek 2000 and Biomek Nx automated robotic pipetting systems.
`COc1cccc(OCc2cc(C)ccn2)c1-c1ccc2c(c1)CCNCC2` [Example 2, 7-(2-(methyloxy)-6-{[(4-methyl-2-pyridinyl)methyl]oxy}phenyl)-2,3,4,5-tetrahydro-1H-3-benzazepine]: the IC50 was 158 to 6310 nM. For `COc1ccc(-c2ccc3c(c2)CCNCC3)c(OCc2cc(C)ccn2)c1` [Example 3, 7-(4-(methyloxy)-2-{[(4-methyl-2-pyridinyl)methyl]oxy}phenyl)-2,3,4,5-tetrahydro-1H-3-benzazepine], the IC50 is 158 to 6310 nM.

On to `Cc1ccnc(COc2ccc(F)cc2-c2ccc3c(c2)CNCC3)c1` [Example 6, 7-(5-fluoro-2-{[(4-methyl-2-pyridinyl)methyl]oxy}phenyl)-1,2,3,4-tetrahydroisoquinoline], for which the IC50 is 158 to 6310 nM. On to `COc1ccnc(COc2ccccc2-c2ccc3c(c2)CCNCC3)c1` [Example 7, 7-[2-({[4-(methyloxy)-2-pyridinyl]methyl}oxy)phenyl]-2,3,4,5-tetrahydro-1H-3-benzazepine], for which the IC50 was 158 to 6310 nM.

In the case of `Cc1ccnc(COc2ccc(C)cc2-c2ccc3c(c2)CNCC3)c1` [Example 10, 7-(5-methyl-2-{[(4-methyl-2-pyridinyl)methyl]oxy}phenyl)-1,2,3,4-tetrahydroisoquinoline], the IC50 is 158 to 6310 nM.

As for `COc1cccc(OCc2cc(C)ccn2)c1-c1ccc2c(c1)CNCC2` [Example 11, 7-(2-(methyloxy)-6-{[(4-methyl-2-pyridinyl)methyl]oxy}phenyl)-1,2,3,4-tetrahydroisoquinoline], the IC50 was 158 to 6310 nM. As for `CCOc1ccc(OCc2cc(C)ccn2)c(-c2ccc3c(c2)CNCC3)c1` [Example 12, 7-(5-(ethyloxy)-2-{[(4-methyl-2-pyridinyl)methyl]oxy}phenyl)-1,2,3,4-tetrahydroisoquinoline], the IC50 was 158 to 6310 nM. For the molecule `Cc1ccnc(COc2ccc(C(F)(F)F)cc2-c2ccc3c(c2)CNCC3)c1` [Example 15, 7-[2-{[(4-methyl-2-pyridinyl)methyl]oxy}-5-(trifluoromethyl)phenyl]-1,2,3,4-tetrahydroisoquinoline], the IC50 is 158 to 6310 nM.

As to `COc1ccc(OCc2cc(C)ccn2)c(-c2ccc3c(c2)CNCC3)c1` [Example 16, 7-(5-(methyloxy)-2-{[(4-methyl-2-pyridinyl)methyl]oxy}phenyl)-1,2,3,4-tetrahydroisoquinoline], the IC50 was 158 to 6310 nM.

In the case of `Cc1ccnc(COc2ccc(C(C)(C)C)cc2-c2ccc3c(c2)CNCC3)c1` [Example 17, 7-(5-(1,1-dimethylethyl)-2-{[(4-methyl-2-pyridinyl)methyl]oxy}phenyl)-1,2,3,4-tetrahydroisoquinoline], the IC50 was 158 to 6310 nM. For the molecule `Cc1ccnc(COc2ccc(C)nc2-c2ccc3c(c2)CCNCC3)c1` [Example 19, 7-(6-methyl-3-{[(4-methyl-2-pyridinyl)methyl]oxy}-2-pyridinyl)-2,3,4,5-tetrahydro-1H-3-benzazepine, trifluoroacetate], the IC50 was 158 to 6310 nM.

As to `COc1ccc(OCc2cnccn2)c(-c2ccc3c(c2)CCNCC3)c1` [Example 20, 7-{5-(methyloxy)-2-[(2-pyrazinylmethyl)oxy]phenyl}-2,3,4,5-tetrahydro-1H-3-benzazepine, trifluoroacetate], the IC50 is 158 to 6310 nM. On to `COc1ccc(OCc2cc(C)ccn2)c(-c2ccc3c(c2)CCNCC3)c1` [Example 22, 7-(5-(methyloxy)-2-{[(4-methyl-2-pyridinyl)methyl]oxy}phenyl)-2,3,4,5-tetrahydro-1H-3-benzazepine, trifluoroacetate], for which the IC50 was 158 to 6310 nM. On to `CC(=O)c1ccc(OCc2cc(C)ccn2)c(-c2ccc3c(c2)CCNCC3)c1` [Example 24, 1-[4-{[(4-methyl-2-pyridinyl)methyl]oxy}-3-(2,3,4,5-tetrahydro-1H-3-benzazepin-7-yl)phenyl]ethanone, trifluoroacetate], for which the IC50 was 158 to 6310 nM. The same measure, in the same setting: next, `Cc1ccnc(COc2ccc(F)cc2-c2ccc3c(c2)CCNCC3)c1` [Example 26, 7-(5-fluoro-2-{[(4-methyl-2-pyridinyl)methyl]oxy}phenyl)-2,3,4,5-tetrahydro-1H-3-benzazepine]: 158 to 6310 nM; `Cc1ccnc(COc2ccc(C)cc2-c2ccc3c(c2)CCNCC3)c1` [Example 27, 7-(5-methyl-2-{[(4-methyl-2-pyridinyl)methyl]oxy}phenyl)-2,3,4,5-tetrahydro-1H-3-benzazepine]: 158 to 6310 nM.

As to `CCOc1ccc(OCc2cc(C)ccn2)c(-c2ccc3c(c2)CCNCC3)c1` [Example 28, 7-(5-(ethyloxy)-2-{[(4-methyl-2-pyridinyl)methyl]oxy}phenyl)-2,3,4,5-tetrahydro-1H-3-benzazepine], the IC50 is 158 to 6310 nM. In the case of `Cc1ccnc(COc2ccc(C#N)cc2-c2ccc3c(c2)CCNCC3)c1` [Example 30, 4-{[(4-methyl-2-pyridinyl)methyl]oxy}-3-(2,3,4,5-tetrahydro-1H-3-benzazepin-7-yl)benzonitrile], the IC50 was 158 to 6310 nM. Take `Cc1ccnc(COc2ccc(C(F)(F)F)cc2-c2ccc3c(c2)CCNCC3)c1` [Example 31, 7-[2-{[(4-methyl-2-pyridinyl)methyl]oxy}-5-(trifluoromethyl)phenyl]-2,3,4,5-tetrahydro-1H-3-benzazepine]: the IC50 is 158 to 6310 nM.

Regarding `Cc1ccnc(COc2ccc(C(C)(C)C)cc2-c2ccc3c(c2)CCNCC3)c1` [Example 32, 7-(5-(1,1-dimethylethyl)-2-{[(4-methyl-2-pyridinyl)methyl]oxy}phenyl)-2,3,4,5-tetrahydro-1H-3-benzazepine], the IC50 is 158 to 6310 nM. For the molecule `CCc1ccnc(COc2ccc(C)nc2-c2ccc3c(c2)CCNCC3)c1` [Example 33, 7-(3-{[(4-ethyl-2-pyridinyl)methyl]oxy}-6-methyl-2-pyridinyl)-2,3,4,5-tetrahydro-1H-3-benzazepine], the IC50 is 158 to 6310 nM. With `Cc1ccnc(COc2ccc(C(C)(C)C)nc2-c2ccc3c(c2)CCNCC3)c1` [Example 34, 7-(6-(1,1-dimethylethyl)-3-{[(4-methyl-2-pyridinyl)methyl]oxy}-2-pyridinyl)-2,3,4,5-tetrahydro-1H-3-benzazepine], the IC50 is 158 to 6310 nM. As to `CCc1ccnc(COc2ccc(C(C)=O)cc2-c2ccc3c(c2)CCNCC3)c1` [Example 35, 1-[4-{[(4-ethyl-2-pyridinyl)methyl]oxy}-3-(2,3,4,5-tetrahydro-1H-3-benzazepin-7-yl)phenyl]ethanone], the IC50 is 158 to 6310 nM.

With `CCOc1ccnc(COc2ccc(C(C)=O)cc2-c2ccc3c(c2)CCNCC3)c1` [Example 36, 1-[4-({[4-(ethyloxy)-2-pyridinyl]methyl}oxy)-3-(2,3,4,5-tetrahydro-1H-3-benzazepin-7-yl)phenyl]ethanone], the IC50 is 158 to 6310 nM. `COc1ccc(OCc2ccccn2)c(-c2ccc3c(c2)CCNCC3)c1` [Example 37, 7-{5-(methyloxy)-2-[(2-pyridinylmethyl)oxy]phenyl}-2,3,4,5-tetrahydro-1H-3-benzazepine]: the IC50 is 158 to 6310 nM.

On to `CC(=O)c1ccc(OCc2ccccn2)c(-c2ccc3c(c2)CNCC3)c1` [Example 38, 1-[4-[(2-pyridinylmethyl)oxy]-3-(1,2,3,4-tetrahydro-7-isoquinolinyl)phenyl]ethanone], for which the IC50 was 158 to 6310 nM.

As to `CNC(=O)c1ccc(OCc2cc(C)ccn2)c(-c2ccc3c(c2)CCNCC3)c1` [Example 39, N-methyl-4-{[(4-methyl-2-pyridinyl)methyl]oxy}-3-(2,3,4,5-tetrahydro-1H-3-benzazepin-7-yl)benzamide], the IC50 was 158 to 6310 nM. As to `Cc1ccnc(COc2ccc(C(=O)N(C)C)cc2-c2ccc3c(c2)CNCC3)c1` [Example 41, N,N-dimethyl-4-{[(4-methyl-2-pyridinyl)methyl]oxy}-3-(1,2,3,4-tetrahydro-7-isoquinolinyl)benzamide], the IC50 was 158 to 6310 nM. On the same count and under the same terms, with `Cc1ccnc(COc2ccc(Cl)cc2-c2ccc3c(c2)CCNCC3)c1` [Example 45, 7-(5-chloro-2-{[(4-methyl-2-pyridinyl)methyl]oxy}phenyl)-2,3,4,5-tetrahydro-1H-3-benzazepine] the figure was 158 to 6310 nM; with `Clc1ccc(OCc2ccccn2)c(-c2ccc3c(c2)CNCC3)c1` [Example 46, 7-{5-chloro-2-[(2-pyridinylmethyl)oxy]phenyl}-1,2,3,4-tetrahydroisoquinoline], 158 to 6310 nM; with `Cc1ccnc(COc2ccc(Cl)nc2-c2ccc3c(c2)CCNCC3)c1` [Example 48, 7-(6-chloro-3-{[(4-methyl-2-pyridinyl)methyl]oxy}-2-pyridinyl)-2,3,4,5-tetrahydro-1H-3-benzazepine], 158 to 6310 nM.

The experiment is the same for the next values; noted with them: Homo sapiens, anti-IgM 5 μg/ml, pErk readout, read-out: average pIC50 (converted).
`COc1cccc(OCc2cc(C)ccn2)c1-c1ccc2c(c1)CCNCC2` [Example 2, 7-(2-(methyloxy)-6-{[(4-methyl-2-pyridinyl)methyl]oxy}phenyl)-2,3,4,5-tetrahydro-1H-3-benzazepine]: the IC50 is no more than 1000 nM. As to `COc1ccc(-c2ccc3c(c2)CCNCC3)c(OCc2cc(C)ccn2)c1` [Example 3, 7-(4-(methyloxy)-2-{[(4-methyl-2-pyridinyl)methyl]oxy}phenyl)-2,3,4,5-tetrahydro-1H-3-benzazepine], the IC50 was no more than 1000 nM. As for `CC(=O)c1ccc(OCc2cc(C)ccn2)c(-c2ccc3c(c2)CCNCC3)c1` [Example 4, 1-[4-{[(4-methyl-2-pyridinyl)methyl]oxy}-3-(2,3,4,5-tetrahydro-1H-3-benzazepin-7-yl)phenyl]ethanone], the IC50 is no more than 1000 nM.
